Results taken from US9796751B2, “Glycyrrhetinic acid derivative and use thereof” (INI CORPORATION, priority 2013, dated 2017).

Key:
[1] = LD50 test; settings: in vivo; read-out: LD50 (lethal dose 50%)
Excerpt: LD50 (lethal dose 50%) of the glycyrrhetinic acid derivative (the compound of the above formula (2)) of the disclosed embodiment and LD50 of carbenoxolone were compared.

[2] = physchem; assay type: physicochemical
[3] = test system: C57BL/6J mouse with chronic constriction injury (CCI) of sciatic nerve; test: Pain behavior test (mechanical allodynia), chronic constriction injury (CCI) of sciatic nerve, von Frey hair; assay type: in vivo; settings: once a day from 7th to 14th day after CCI operation, Gabapentin 30 mg/kg i.p.
Procedure: Chronic pain was caused by performing a chronic constriction injury (CCI) operation of sciatic nerve on a hind leg of a C57BL/6J mouse (8 week old, n=4 in each group). Threshold values of mechanical strength which indicated avoidance behavior were recorded by pressing a von Frey hair against the foot pad of the mouse's hind leg (from the previous day of the CCI operation to the 14th day after the operation).
Regarding drugs, the below drugs were administered once a day from the 7th day to the 14th day after the operation, and the therapeutic effects were studied. In this example, “Compound No. 37” is a compound represented by the above formula (2).
Control: the same volume of physiological saline
Gabapentin: 30 mg/kg, intraperitoneal administration
Compound No. 37: 100 mg/kg, subcutaneous administration
Compound No. 37: 20 mg/kg, subcutaneous administration
Compound No. 37: 20 mg/kg, intraperitoneal administration

[4] = test system: glutamate concentration in cerebrospinal fluid; test: Cerebrospinal fluid glutamate concentration determination (HPLC); assay type: in vivo, mouse; settings: 14th day after CCI operation, compared with Gabapentin group
Procedure: On the 14th day after the CCI operation, cerebrospinal fluid were collected from the foramen magnum of the above-mentioned mice, and the glutamate concentration was measured quantitatively with HPLC.

[5] = test system: human superoxide dismutase 1 (SOD1) G93A mutant transgenic mice; test: Survival extension effect in ALS acute-onset model mice (Kaplan-Meier); assay type: in vivo, mouse; settings: 20 mg/kg intraperitoneal three times a week from 7-8 weeks of age; p<0.05
Procedure: The assessment of drug efficacy was conducted using, as an animal model of neurodegenerative diseases, the human superoxide dismutase 1 (SOD1) G93A mutant transgenic mice, which are widely used as an acute-onset model of amyotrophic lateral sclerosis (ALS).
Starting at 7-8 weeks of age, which is considered to be an early ALS onset period, the mice were intraperitoneally administered with 20 mg/kg body weight of the glycyrrhetinic acid derivative of the disclosed embodiment (Compound No. 37 group) or the same volume of physiological saline (saline group) three times a week.
The survival analysis was performed using the Kaplan-Meier method.

[6] = test system: human amyloid β1-42 peptide (Aβ) intraventricularly injected mice; test: Fear conditioned learning test in Alzheimer's disease model mice; assay type: in vivo, mouse; settings: 20 mg/kg intraperitoneal three times a week; Aβ 300 pmol/3 μl intraventricular; vs physiological saline group; p<0.05
Procedure: The assessment of drug efficacy of the glycyrrhetinic acid derivative of the disclosed embodiment (Compound No. 37 group) was conducted using, as an animal model of neurodegenerative diseases, the human amyloid β1-42 peptide (Aβ) intraventricularly injected mice (Doi et al., Am J Pathol. 175 (5): 2121-32, 2009), which are widely used as an Alzheimer's disease model.
The mice were intraventricularly injected with 300 pmol/3 μl of Aβ, and from the day of the injection, they were intraperitoneally administered with 20 mg/kg body weight of the glycyrrhetinic acid derivative (Compound No. 37 group) of the disclosed embodiment or the same volume of physiological saline (vehicle group) three times a week. For control group was used wild type mouse (G57BL/6J) of the same age. Behavioral analysis was performed using the following fear conditioned learning test.
Associative learning was assessed using a fear conditioned learning test (Mouri et al., FASEB J. 21, 2135-2148, 2007; Nagai et al., FASEB J. 17, 50-52, and 2003). The mice were placed in a transparent acrylic cage with a stainless steel grid installed therein and were subjected to a 20 second tone stimulus (80 dB) and to an electric stimulus (0.6 mA) in the last 5 seconds. A set of this combination stimulus was repeated 4 times with 15 second intervals, thereby causing fear conditioning. […]

[7] = Intracerebral migration after administration via various paths; assay type: in vivo, mice
Excerpt: In this respect, the presently disclosed embodiment has a significant effect.

| Compound | LD50 [1] | logD [2] | pain threshold value compared to Gabapentin group ([3]; 20 mg/kg intraperitoneal) | pain threshold value compared to Gabapentin group ([3]; 100 mg/kg subcutaneous) | glutamate concentration in the cerebrospinal fluid ([4]; 20 mg/kg intraperitoneal) | glutamate concentration in the cerebrospinal fluid ([4]; 20 mg/kg subcutaneous) | glutamate concentration in the cerebrospinal fluid ([4]; 100 mg/kg subcutaneous) | extension of survival on average vs saline group [5] | freezing behavior time in the contextual dependency test (memory disorder improvement) [6] | delivery into brain ([7]; injected hypodermically, model mice) | delivery into brain ([7]; intraarterial injection) | reaching central nervous system and medicinal effect ([7]; intraperitoneal injection, model mice) | delivery into brain ([7]; intravenous injection) |
| --- | --- | --- | --- | --- | --- | --- | --- | --- | --- | --- | --- | --- | --- |
| CC1(C)[C@@H](OC(=O)CCC(=O)O)CC[C@]2(C)[C@H]3C(=O)C=C4[C@@H]5C[C@@](C)(C(=O)O)CC[C@]5(C)CC[C@@]4(C)[C@]3(C)CC[C@@H]12 [carbenoxolone, reference compound] | 100 mg/kg | – | – | – | – | – | – | – | – | – | – | – | – |
| C[n+]1cccc(C(=O)N[C@H]2CC[C@]3(C)[C@H]4C(=O)C=C5[C@@H]6C[C@@](C)(C(=O)O)CC[C@]6(C)CC[C@@]5(C)[C@]4(C)CC[C@H]3C2(C)C)c1 [Compound No. 37] | > 5000 mg/kg | 2.94 | significant increases of pain threshold values | significant increases of pain threshold values | a decrease of the glutamate concentration in the cerebrospinal fluid, which was equal to or more than that shown in Gabapentin group | a decrease of the glutamate concentration in the cerebrospinal fluid, which was equal to or more than that shown in Gabapentin group | a decrease of the glutamate concentration in the cerebrospinal fluid, which was equal to or more than that shown in Gabapentin group | about 17 days | significantly moderated the observed reduction in freezing behavior time | is delivered into brain | delivered into brain | reach a central nervous system and exert a medicinal effect | delivered into brain |
